Results taken from ChEMBL document CHEMBL1139855, “Molecular recognition of DNA by rigid [N]-polynorbornane-derived bifunctional intercalators: synthesis and evaluation of their binding properties” (J Med Chem, 2007).

How the values were obtained:
Escherichia coli = test: Binding affinity at Escherichia coli double stranded DNA by competition dialysis assay
DNA = test: Binding affinity at calf thymus double stranded DNA by competition dialysis assay; format: nucleic-acid assay; settings: Bos taurus
[1] = Binding affinity at poly (dAdT). poly (dAdT) dsDNA polynucleotide by competition dialysis assay
[2] = Binding affinity at poly (dGdC). poly (dGdC) dsDNA polynucleotide by competition dialysis assay
[3] = Binding affinity at poly(dA).poly(dT) dsDNA polynucleotide by competition dialysis assay
[4] = Binding affinity at polyA.Poly U dsRNA polynucleotide by competition dialysis assay
Triticum aestivum = test: Binding affinity at wheat germ single stranded RNA by competition assay
[5] = Binding affinity at polyA ssRNA by competition dialysis assay

## FC(F)(F)C12OC(C(F)(F)F)(C3C4CC(C5CN(CCNc6c7ccccc7nc7ccccc67)CC54)C31)C1C3CC(C4CN(CCNc5c6ccccc6nc6ccccc56)CC43)C12 (stereo unspecified)
Escherichia coli
  Kapp: 19.1 10^3/M
DNA
  Kapp: 20.3 10^3/M
[1]
  Kapp: 29.5 10^3/M
[2]
  Kapp: 27.6 10^3/M
[3]
  Kapp: 19.6 10^3/M
[4]
  Kapp: 0.53 10^3/M
Triticum aestivum
  Kapp: 0.53 10^3/M
[5]
  Kapp: 1.73 10^3/M

## COC(=O)C12OC(C(=O)OC)(C3C4CC(C5C(=O)N(CCNC(=O)c6cccc7cc8ccccc8nc67)C(=O)C45)C31)C1C3CC(C4C(=O)N(CCNC(=O)c5cccc6cc7ccccc7nc56)C(=O)C34)C12 (stereo unspecified)
Escherichia coli
  Kapp: 6.8 10^3/M
DNA
  Kapp: 16 10^3/M
[1]
  Kapp: 13.9 10^3/M
[2]
  Kapp: 9.6 10^3/M
[3]
  Kapp: 6.8 10^3/M
[4]
  Kapp: 8.27 10^3/M
Triticum aestivum
  Kapp: 0.53 10^3/M
[5]
  Kapp: 0.53 10^3/M

## O=C1C2C3C=CC(C3)C2C(=O)N1CCNc1c2ccccc2nc2ccccc12 (stereo unspecified)
Escherichia coli
  Kapp: 3.47 10^3/M
DNA
  Kapp: 6.27 10^3/M
[1]
  Kapp: 12.1 10^3/M
[2]
  Kapp: 3.47 10^3/M
[3]
  Kapp: 0.53 10^3/M
[4]
  Kapp: 1.47 10^3/M
Triticum aestivum
  Kapp: 2.4 10^3/M
[5]
  Kapp: 0 10^3/M

## COC(=O)C12OC(C(=O)OC)(C3C4CC(C5C(=O)N(CCNc6c7ccccc7nc7ccccc67)C(=O)C45)C31)C1C3CC(C4C(=O)N(CCNc5c6ccccc6nc6ccccc56)C(=O)C34)C12 (stereo unspecified)
Escherichia coli
  Kapp: 32.8 10^3/M
DNA
  Kapp: 30.4 10^3/M
[1]
  Kapp: 38.9 10^3/M
[2]
  Kapp: 28.4 10^3/M
[3]
  Kapp: 16.4 10^3/M
[4]
  Kapp: 19.2 10^3/M
Triticum aestivum
  Kapp: 8.8 10^3/M
[5]
  Kapp: 2.93 10^3/M

## COC(=O)C12OC(C(=O)OC)(C3C4CC(C5C(=O)N(CCNC(=O)c6cccc7cc8ccccc8nc67)C(=O)C45)C31)C1C3CC(C4C(=O)N(CCNc5c6ccccc6nc6ccccc56)C(=O)C34)C12 (stereo unspecified)
Escherichia coli
  Kapp: 12.9 10^3/M
DNA
  Kapp: 23.1 10^3/M
[1]
  Kapp: 29.5 10^3/M
[2]
  Kapp: 15.6 10^3/M
[3]
  Kapp: 0.8 10^3/M
[4]
  Kapp: 0.27 10^3/M
Triticum aestivum
  Kapp: 0.27 10^3/M
[5]
  Kapp: 0.27 10^3/M

## COC(=O)C12OC(C(=O)OC)(C3C4CC(C5C(=O)N(CCNc6c7ccccc7nc7ccccc67)C(=O)C45)C31)C1C3CC(C12)C1C3C2(C(=O)OC)OC1(C(=O)OC)C1C3CC(C4C(=O)N(CCNc5c6ccccc6nc6ccccc56)C(=O)C34)C12 (stereo unspecified)
Escherichia coli
  Kapp: 25.7 10^3/M
DNA
  Kapp: 30.4 10^3/M
[1]
  Kapp: 31.7 10^3/M
[2]
  Kapp: 26.4 10^3/M
[3]
  Kapp: 23.7 10^3/M
[4]
  Kapp: 25.5 10^3/M
Triticum aestivum
  Kapp: 5.33 10^3/M
[5]
  Kapp: 1.47 10^3/M

## COC(=O)C12OC(C(=O)OC)(C3C4CC(C5C(=O)N(CCNc6c7ccccc7nc7ccccc67)C(=O)C45)C31)C1C3CC(C4C(=O)N(CCN5C(=O)c6cccc7cccc(c67)C5=O)C(=O)C34)C12 (stereo unspecified)
Escherichia coli
  Kapp: 14.9 10^3/M
DNA
  Kapp: 8.13 10^3/M
[1]
  Kapp: 14.4 10^3/M
[2]
  Kapp: 8.13 10^3/M
[3]
  Kapp: 3.87 10^3/M
[4]
  Kapp: 0.8 10^3/M
Triticum aestivum
  Kapp: 7.6 10^3/M
[5]
  Kapp: 0.8 10^3/M
